Results reported in PMC5026600 (ACS chemical biology, 2016).
Where two headings read alike, the source gives them in different places.

What was measured:
[1] = biological target: MycCI (Micromonospora griseorubida) (UniProt Q83WF5); conditions: cited from earlier work
MycCI-RhFRED = MycCI-RhFRED (Micromonospora griseorubida, UniProt Q83WF5); experiment: Steady-state kinetics / TOF, product formation by HPLC; assay type: biochemical; conditions: for Fold lower rate of product formation vs tripartite MycCI system: MycCI-RhFRED compared to MycCI/MycCII/MBP-FdR, label is the product formed
TamI-RhFRED = conditions: cited from earlier work
MycCI/MycCII = biological target: T1, MycCI/MycCII (Micromonospora griseorubida, UniProt Q83WF5); experiment: Total turnover number; assay type: biochemical; conditions: MycCI/MycCII/MBP-FdR
T1 sequence (Q83WF5 1-388): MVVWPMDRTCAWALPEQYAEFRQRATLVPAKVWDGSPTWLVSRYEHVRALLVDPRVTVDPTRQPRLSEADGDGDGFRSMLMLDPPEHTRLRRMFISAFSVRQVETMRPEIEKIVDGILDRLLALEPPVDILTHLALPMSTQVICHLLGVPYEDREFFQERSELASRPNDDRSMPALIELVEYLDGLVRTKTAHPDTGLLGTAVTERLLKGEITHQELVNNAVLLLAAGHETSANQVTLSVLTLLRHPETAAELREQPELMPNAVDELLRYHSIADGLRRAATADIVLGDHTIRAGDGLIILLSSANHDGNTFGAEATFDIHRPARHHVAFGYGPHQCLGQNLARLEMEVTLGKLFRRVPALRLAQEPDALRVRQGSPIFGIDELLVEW

MycCI [2] = biological target: T2, MycCI (Micromonospora griseorubida, UniProt Q83WF5); experiment: Equilibrium substrate binding assay; conditions: for Percent of enzyme in high-spin state at saturating substrate: MycCI wild-type, relative to saturation with 10 taken as complete conversion
T2 sequence (Q83WF5 1-388): T1 sequence (Q83WF5 1-388)

[3] = biological target: T3, MycCI in conjunction with MycCII and MBP-FdR (Micromonospora griseorubida, UniProt Q83WF5); experiment: Scale-up reactions with MycCI, MycCII and MBP-FdR, conversion; assay type: biochemical; conditions: for Conversion: scale-up reactions
T3 sequence (Q83WF5 1-388): T1 sequence (Q83WF5 1-388)

OleP = conditions: binding to OleP; cited from earlier work
MycCI [4] = biological target: T2, MycCI; conditions: determined by monitoring NADPH consumption; cited from earlier work
MycCI/MycCII/MBP-FdR = biological target: T4, MycCI/MycCII/MBP-FdR (Micromonospora griseorubida, UniProt Q83WF5); experiment: Steady-state kinetics / TOF, product formation by HPLC; assay type: biochemical
T4 sequence (Q83WF5 1-388): T1 sequence (Q83WF5 1-388)

TylHI/MycCII = TylHI/MycCII (Streptomyces fradiae, UniProt Q9ZHQ1); experiment: Turnover frequency; assay type: biochemical; conditions: MycCII as surrogate ferredoxin vs TylHII
TylHI/TylHII = TylHI/TylHII (Streptomyces fradiae, UniProt Q9ZHQ1); experiment: Turnover frequency; assay type: biochemical; conditions: TylHI/TylHII/MBP-FdR
MycCI [5] = biological target: T2, MycCI; conditions: read-out: apparent dissociation constant (Kd); N-terminal His-tagged MycCII binding to MycCI; cited from earlier work

Chain of TylHI/MycCII (Q9ZHQ1 whole entry): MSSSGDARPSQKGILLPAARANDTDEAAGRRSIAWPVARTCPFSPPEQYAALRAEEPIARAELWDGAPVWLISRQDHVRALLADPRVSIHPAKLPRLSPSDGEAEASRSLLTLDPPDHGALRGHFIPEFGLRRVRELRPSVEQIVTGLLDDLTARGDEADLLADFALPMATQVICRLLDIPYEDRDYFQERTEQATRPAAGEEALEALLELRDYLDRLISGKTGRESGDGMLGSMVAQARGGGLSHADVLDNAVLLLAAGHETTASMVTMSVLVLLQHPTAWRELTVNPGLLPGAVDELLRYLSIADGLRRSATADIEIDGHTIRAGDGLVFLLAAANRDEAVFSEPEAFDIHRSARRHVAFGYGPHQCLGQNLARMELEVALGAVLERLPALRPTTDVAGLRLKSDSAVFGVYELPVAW
Chain of TylHI/TylHII (Q9ZHQ1 whole entry): as above

Molecule: MycCII (from UniProt Q83WF4)
- Kd [1]: 7 µM

Molecule: CC[C@H]1OC(=O)/C=C/[C@H](C)[C@@H](O)[C@@H](C)C[C@@H](C)C(=O)/C=C/C=C/[C@@H]1CO [compound 13, mycinolide IV]
- Fold lower rate of product formation vs tripartite MycCI system (MycCI-RhFRED): ~6 fold

Molecule: CC(/C=C/C(O)=C1/C(=O)CNC1=O)=C\[C@@H](C)[C@H]1O[C@@]2(C)O[C@H](C(=O)[C@H]3O[C@]32C)[C@@H]1C [tirandamycin A]
- kcat (TamI-RhFRED): 0.00183 ± 0.00017 s⁻¹

Molecule: CC[C@H]1OC(=O)[C@H](C)[C@@H](O)[C@@H](C)C[C@@H](C)C(=O)/C=C/[C@H]1C [compound 2, 10-deoxymethynolide]
- C-H oxidation of the compound by the enzyme (MycCI/MycCII): unable to catalyze C-H oxidation
- Concentration-dependent change in the spin state of the enzyme (MycCI [2]; MycCI): did not induce a concentration-dependent change in the spin state

Molecule: CC[C@H]1OC(=O)/C=C/[C@H](C)[C@@H](O)[C@@H](C)C[C@@H](C)C(=O)/C=C/C=C/[C@@H]1C [compound 8, protomycinolide IV]
- Fold lower specificity constant relative to 10 (MycCI-RhFRED; MycCI-RhFRED, product formation): ~ 14 fold
- Percent of enzyme in high-spin state at saturating substrate (MycCI [2]): ~ 80%
- Conversion [3]: ~ 30%

Molecule: CC[C@H]1OC(=O)[C@H](C)[C@@H](O[C@@H]2O[C@H](C)C[C@H](N(C)C)[C@H]2O)[C@@H](C)C[C@@H](C)C(=O)/C=C/[C@H]1C [compound 3, YC-17]
- C-H oxidation of the compound by the enzyme (MycCI/MycCII): unable to catalyze C-H oxidation
- Percent of enzyme in high-spin state at saturating substrate (MycCI [2]): ~ 30%

Molecule: CC(=O)N1CCN(c2ccc(OCC3COC(Cn4ccnc4)(c4ccc(Cl)cc4Cl)O3)cc2)CC1 (centres unmarked) [ketoconazole]
- Kd (OleP): 0.005 µM

Molecule: CC[C@H]1OC(=O)/C=C/[C@H](C)[C@@H](O[C@@H]2O[C@H](C)C[C@H](N(C)C)[C@H]2O)[C@@H](C)C[C@@H](C)C(=O)/C=C/C=C/[C@@H]1C [compound 9, mycinamicin VIII]
- Turnover frequency (TOF) (MycCI-RhFRED; MycCI-RhFRED, 500 μM substrate): 1.19 ± 0.06 min⁻¹
- kcat (MycCI [4]): 1.73 ± 0.033 s⁻¹
- Turnover rate at low substrate concentration (MycCI/MycCII/MBP-FdR; MycCI/MycCII/MBP-FdR, 10 μM substrate): 2.3 ± 0.3 min⁻¹
- Turnover frequency (TOF) (MycCI/MycCII/MBP-FdR; tripartite MycCI/MycCII/MBP-FdR, 500 μM substrate): 1.4 ± 0.1 min⁻¹

Molecule: CC[C@H]1OC(=O)[C@H](C)C(=O)[C@H](C)[C@@H](O[C@@H]2O[C@H](C)C[C@H](N(C)C)[C@H]2O)[C@@H](C)C[C@@H](C)C(=O)/C=C/[C@H]1C [compound 5, narbomycin]
- Percent of enzyme in high-spin state at saturating substrate (MycCI [2]): ~ 80%
- Monohydroxylated product, share of the reaction mixture ([3]; scale-up, first monohydroxylated product): ~ 2%
- Slightly more polar monohydroxylated product, share of the reaction mixture ([3]; scale-up, second product): ~ 0.5%

Molecule: CC[C@H]1OC(=O)[C@H](C)C(=O)[C@H](C)[C@@H](O)[C@@H](C)C[C@@H](C)C(=O)/C=C/[C@H]1C [compound 4, narbonolide]
- C-H oxidation of the compound by the enzyme (MycCI/MycCII): unable to catalyze C-H oxidation
- Concentration-dependent change in the spin state of the enzyme (MycCI [2]; MycCI): did not induce a concentration-dependent change in the spin state

Molecule: CC[C@H]1OC(=O)C[C@@H](O)[C@H](C)[C@@H](O[C@@H]2O[C@H](C)[C@@H](O)[C@H](N(C)C)[C@H]2O)[C@@H](CC=O)C[C@@H](C)C(=O)/C=C/C(C)=C/[C@@H]1C [compound 12, 23-deoxy-5-O-mycaminosyl-tylonolide]
- Fold increase of TOF with MycCII instead of TylHII (TylHI/MycCII): 12 fold
- Turnover frequency (TOF) (TylHI/TylHII): 0.14 ± 0.03 min⁻¹

Molecule: 23-hydroxy-tylactone [compound 15]
- Fold lower rate of product formation vs tripartite MycCI system (MycCI-RhFRED): about 3 fold

Molecule: CC[C@H]1C[C@@H](C)C(=O)/C=C/C(C)=C/[C@H](C)[C@@H](CC)OC(=O)C[C@@H](O)[C@H](C)[C@H]1O [compound 10, tylactone]
- Kd (MycCI [2]; Kd, MycCI): ~3 µM
- Conversion [3]: ~ 50%

B1: MycCII: [3Fe-4S]-type ferredoxin encoded by mycCII, redox partner of MycCI (protein)
chain: MRIVLDAERCVGAGQCEATAPELFTQGDDGLGLVRDRPVTPELLGPAREAVDRCPVRAIRIESSVRTGWARGAG
modifications: left off: His tag, N-terminal, state not stated
- Kd (MycCI [5]): 7 µM
